Assay results: US20200172966A1 (YAMAGUCHI UNIVERSITY, priority 2015, published 2020)

Test: incidence of side effect (hematologic toxicity) by single nucleotide polymorphism genotype in Japanese patients with colon cancer who had received irinotecan
Assay type: in vivo, human
Protocol: By using TaqMan SNP Assays Human (manufactured by Applied Biosystems, Inc.) and LightCycler (R) 480 Probe Master (manufactured by Roche Diagnostics, Inc.), Universal ProbeLibrary (manufactured by Roche Diagnostics, Inc.), and LightCycler 480 System II (manufactured by Roche Diagnostics, Inc.), 10 ng of genomic DNA was subjected to genotyping. After incubation at 95° C. for 10 min, the sample was subjected to PCR amplification with 55 cycles for rs1980576, rs2272761, and rs9425343, 45 cycles for rs12577167, rs7265854, and rs1135640, or 40 cycles for rs1547 (1 cycle consisted of 92° C. for 15 sec and 60° C. for 60 sec). The fluorescence emitted from the PCR products were measured.
The “Odds ratio” in Table 3 refers to an odds ratio indicating the occurrence of a side effect as calculated using a Fisher's exact test on a single nucleotide polymorphism being homozygous for a wild-type or homozygous for a variant type.
The term (P value/C.-A.) in Table 4 is the same as in Table 2. […] The term “Odds ratio” in Table 5 is the same as in Table 3.

[1] = N = 67, homozygous UGT1A1*28, homozygous *6, compound heterozygous excluded (Table 2), ACOX1 rs1135640 C/C
[2] = N = 67, homozygous UGT1A1*28, homozygous *6, compound heterozygous excluded (Table 2), ACOX1 rs1135640 C/G
[3] = N = 67, homozygous UGT1A1*28, homozygous *6, compound heterozygous excluded (Table 2), ACOX1 rs1135640 G/G
[4] = N = 67, homozygous UGT1A1*28, homozygous *6, compound heterozygous excluded (Table 3), ACOX1 rs1135640 G/G
[5] = N = 67, homozygous UGT1A1*28, homozygous *6, compound heterozygous excluded, ACOX1 rs1135640 C/C, C/G
[6] = N = 67, homozygous UGT1A1*28, homozygous *6, compound heterozygous excluded, APCDD1L rs1980576 A/A
[7] = N = 67, homozygous UGT1A1*28, homozygous *6, compound heterozygous excluded, APCDD1L rs1980576 A/A, A/G
[8] = N = 67, homozygous UGT1A1*28, homozygous *6, compound heterozygous excluded, APCDD1L rs1980576 A/G, G/G
[9] = N = 67, homozygous UGT1A1*28, homozygous *6, compound heterozygous excluded, APCDD1L rs1980576 G/G
[10] = N = 67, homozygous UGT1A1*28, homozygous *6, compound heterozygous excluded, APCDD1L rs7265854 C/C
[11] = N = 67, homozygous UGT1A1*28, homozygous *6, compound heterozygous excluded, APCDD1L rs7265854 T/T, T/C
[12] = N = 67, homozygous UGT1A1*28, homozygous *6, compound heterozygous excluded, EDEM3 rs9425343 T/G, G/G
[13] = N = 67, homozygous UGT1A1*28, homozygous *6, compound heterozygous excluded, EDEM3 rs9425343 T/T
[14] = N = 67, homozygous UGT1A1*28, homozygous *6, compound heterozygous excluded, R3HCC1 rs2272761 G/A, A/A
[15] = N = 68, homozygous UGT1A1*28, homozygous *6, compound heterozygous excluded, APCDD1L rs1980576 A/A
[16] = N = 68, homozygous UGT1A1*28, homozygous *6, compound heterozygous excluded, APCDD1L rs1980576 A/G
[17] = N = 68, homozygous UGT1A1*28, homozygous *6, compound heterozygous excluded, APCDD1L rs1980576 G/G
[18] = N = 68, homozygous UGT1A1*28, homozygous *6, compound heterozygous excluded, APCDD1L rs7268854 A/A
[19] = N = 68, homozygous UGT1A1*28, homozygous *6, compound heterozygous excluded, APCDD1L rs7268854 A/G
[20] = N = 68, homozygous UGT1A1*28, homozygous *6, compound heterozygous excluded, APCDD1L rs7268854 G/G
[21] = N = 68, homozygous UGT1A1*28, homozygous *6, compound heterozygous excluded, CSMD2 rs474474 A/A
[22] = N = 68, homozygous UGT1A1*28, homozygous *6, compound heterozygous excluded, CSMD2 rs474474 A/G
[23] = N = 68, homozygous UGT1A1*28, homozygous *6, compound heterozygous excluded, CSMD2 rs474474 G/G
[24] = N = 68, homozygous UGT1A1*28, homozygous *6, compound heterozygous excluded, EDEM3 rs9425343 G/G
[25] = N = 68, homozygous UGT1A1*28, homozygous *6, compound heterozygous excluded, EDEM3 rs9425343 T/G
[26] = N = 68, homozygous UGT1A1*28, homozygous *6, compound heterozygous excluded, EDEM3 rs9425343 T/T
[27] = N = 68, homozygous UGT1A1*28, homozygous *6, compound heterozygous excluded, GATA2 rs2335052 A/A
[28] = N = 68, homozygous UGT1A1*28, homozygous *6, compound heterozygous excluded, GATA2 rs2335052 G/A
[29] = N = 68, homozygous UGT1A1*28, homozygous *6, compound heterozygous excluded, GATA2 rs2335052 G/G
[30] = N = 68, homozygous UGT1A1*28, homozygous *6, compound heterozygous excluded, MKKS rs1547 C/C
[31] = N = 68, homozygous UGT1A1*28, homozygous *6, compound heterozygous excluded, MKKS rs1547 C/T
[32] = N = 68, homozygous UGT1A1*28, homozygous *6, compound heterozygous excluded, MKKS rs1547 T/T
[33] = N = 68, homozygous UGT1A1*28, homozygous *6, compound heterozygous excluded, OR5112 rs12577167 A/A
[34] = N = 68, homozygous UGT1A1*28, homozygous *6, compound heterozygous excluded, OR5112 rs12577167 A/G
[35] = N = 68, homozygous UGT1A1*28, homozygous *6, compound heterozygous excluded, OR5112 rs12577167 G/G
[36] = N = 68, homozygous UGT1A1*28, homozygous *6, compound heterozygous excluded, R3HCC1 rs2272761 A/A
[37] = N = 68, homozygous UGT1A1*28, homozygous *6, compound heterozygous excluded, R3HCC1 rs2272761 G/A
[38] = N = 68, homozygous UGT1A1*28, homozygous *6, compound heterozygous excluded, R3HCC1 rs2272761 G/G

CCc1c2c(nc3ccc(OC(=O)N4CCC(N5CCCCC5)CC4)cc13)-c1cc3c(c(=O)n1C2)COC(=O)[C@]3(O)CC [irinotecan, 1,4′-Bipiperidine-1′-carboxylic acid (S)-4,11-diethyl-3,4,12,14-tetrahydro-4-hydroxy-3,14-dioxo-1H-pyrano[3′,4′:6,7]indolizino[1,2-b]quinolin-9-yl ester]
irinotecan side effect observed (68 cases considered to have a low risk of a side effect in view of the UGT1A gene polymorphisms): 42.6%
Toxicity No [1]: 3
Toxicity Yes [1]: 6
Toxicity No [2]: 14
Toxicity Yes [2]: 15
Toxicity No [3]: 21
Toxicity Yes [3]: 8
Toxicity No [4]: 21
Toxicity Yes [4]: 8
Toxicity No [5]: 17
Toxicity Yes [5]: 21
Toxicity No [6]: 16
Toxicity Yes [6]: 5
Toxicity No [7]: 35
Toxicity Yes [7]: 21
Toxicity No [8]: 22
Toxicity Yes [8]: 24
Toxicity No [9]: 3
Toxicity Yes [9]: 8
Toxicity No [10]: 8
Toxicity Yes [10]: 1
Toxicity No [11]: 30
Toxicity Yes [11]: 28
Toxicity No [12]: 31
Toxicity Yes [12]: 17
Toxicity No [13]: 7
Toxicity Yes [13]: 12
Toxicity No [14]: 32
Toxicity Yes [14]: 29
Toxicity No (N = 67, homozygous UGT1A1*28, homozygous *6, compound heterozygous excluded, R3HCC1 rs2272761 G/G): 6
Toxicity No [15]: 16
Toxicity Yes [15]: 5
Toxicity No [16]: 20
Toxicity Yes [16]: 16
Toxicity No [17]: 3
Toxicity Yes [17]: 8
Toxicity No [18]: 13
Toxicity Yes [18]: 13
Toxicity No [19]: 18
Toxicity Yes [19]: 15
Toxicity No [20]: 8
Toxicity Yes [20]: 1
Toxicity No [21]: 16
Toxicity Yes [21]: 17
Toxicity No [22]: 18
Toxicity Yes [22]: 8
Toxicity No [23]: 5
Toxicity Yes [23]: 4
Toxicity No [24]: 10
Toxicity Yes [24]: 3
Toxicity No [25]: 21
Toxicity Yes [25]: 14
Toxicity No [26]: 8
Toxicity Yes [26]: 12
Toxicity No [27]: 5
Toxicity Yes [27]: 3
Toxicity No [28]: 20
Toxicity Yes [28]: 10
Toxicity No [29]: 14
Toxicity Yes [29]: 16
Toxicity No [30]: 20
Toxicity Yes [30]: 8
Toxicity No [31]: 16
Toxicity Yes [31]: 16
Toxicity No [32]: 3
Toxicity Yes [32]: 5
Toxicity No [33]: 19
Toxicity Yes [33]: 20
Toxicity No [34]: 14
Toxicity Yes [34]: 8
Toxicity No [35]: 6
Toxicity Yes [35]: 1
Toxicity No [36]: 22
Toxicity Yes [36]: 21
Toxicity No [37]: 11
Toxicity Yes [37]: 8
Toxicity No [38]: 6
Toxicity Yes [38]: 0
